From publication PMC7318245, “Powering Artificial Enzymatic Cascades with Electrical Energy” (Angewandte Chemie (International Ed. in English), 2020)

Target: T1, SH (O2-tolerant, NAD+-reducing hydrogenase, soluble hydrogenase) (Cupriavidus necator, UniProt P22317)
T1 construct: gene hoxF; purified; immobilised on Amberlite FP54; hydrogenase and diaphorase modules; with NAD-reducing hydrogenase HoxS subunit gamma; NAD-reducing hydrogenase HoxS subunit delta; NAD-reducing hydrogenase HoxS subunit beta; NAD-reducing hydrogenase subunit HoxI
T1 sequence (P22317 whole entry): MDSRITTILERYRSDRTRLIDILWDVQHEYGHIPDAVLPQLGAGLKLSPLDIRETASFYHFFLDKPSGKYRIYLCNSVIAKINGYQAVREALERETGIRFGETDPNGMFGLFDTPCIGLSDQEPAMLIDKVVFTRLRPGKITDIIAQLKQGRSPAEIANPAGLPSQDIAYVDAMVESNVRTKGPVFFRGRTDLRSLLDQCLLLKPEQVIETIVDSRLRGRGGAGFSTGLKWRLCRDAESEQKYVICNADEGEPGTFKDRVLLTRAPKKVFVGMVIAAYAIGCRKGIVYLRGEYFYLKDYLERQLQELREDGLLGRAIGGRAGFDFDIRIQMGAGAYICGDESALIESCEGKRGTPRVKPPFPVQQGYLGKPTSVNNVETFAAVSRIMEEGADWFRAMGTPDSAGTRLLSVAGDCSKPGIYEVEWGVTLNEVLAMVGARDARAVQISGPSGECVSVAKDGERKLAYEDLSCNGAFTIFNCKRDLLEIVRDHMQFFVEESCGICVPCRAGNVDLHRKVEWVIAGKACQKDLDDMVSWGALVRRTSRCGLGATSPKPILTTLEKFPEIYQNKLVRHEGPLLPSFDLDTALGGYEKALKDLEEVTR
T1 sequence (P22318 2-234 partner): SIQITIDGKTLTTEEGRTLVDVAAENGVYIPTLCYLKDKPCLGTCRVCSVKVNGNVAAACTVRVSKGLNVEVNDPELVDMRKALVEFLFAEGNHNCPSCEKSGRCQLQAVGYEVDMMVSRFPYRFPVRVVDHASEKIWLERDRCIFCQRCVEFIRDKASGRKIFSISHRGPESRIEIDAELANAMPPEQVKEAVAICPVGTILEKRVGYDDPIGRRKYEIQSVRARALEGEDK
T1 sequence (P22319 whole entry partner): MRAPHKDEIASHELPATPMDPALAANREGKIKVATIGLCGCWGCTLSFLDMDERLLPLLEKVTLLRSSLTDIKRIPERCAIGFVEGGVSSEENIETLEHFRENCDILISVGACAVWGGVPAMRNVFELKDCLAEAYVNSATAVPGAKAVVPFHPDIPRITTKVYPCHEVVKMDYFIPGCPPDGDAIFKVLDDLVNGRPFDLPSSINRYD
T1 sequence (P22320 2-464 partner): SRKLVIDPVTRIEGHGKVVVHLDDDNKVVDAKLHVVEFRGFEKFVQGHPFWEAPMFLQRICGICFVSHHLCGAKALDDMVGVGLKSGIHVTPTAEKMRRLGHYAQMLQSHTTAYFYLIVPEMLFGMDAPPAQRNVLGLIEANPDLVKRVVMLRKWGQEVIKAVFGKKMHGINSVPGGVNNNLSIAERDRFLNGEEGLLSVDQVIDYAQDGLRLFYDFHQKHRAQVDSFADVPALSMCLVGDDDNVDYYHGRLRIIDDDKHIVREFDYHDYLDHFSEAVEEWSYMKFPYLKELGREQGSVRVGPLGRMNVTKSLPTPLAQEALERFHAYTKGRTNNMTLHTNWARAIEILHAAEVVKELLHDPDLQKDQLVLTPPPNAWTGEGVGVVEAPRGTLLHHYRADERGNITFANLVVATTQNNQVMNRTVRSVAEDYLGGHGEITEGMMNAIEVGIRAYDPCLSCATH
Assay: on-line H2 consumption and NADH evolution
Assay type: biochemical
Settings: immobilised enzyme in cascade; 2 mM NAD+, H2, Tris-HCl 50 mM pD 8.0, 22 °C

NC(=O)c1ccc[n+]([C@@H]2O[C@H](COP(=O)(O)OP(=O)(O)OC[C@H]3O[C@@H](n4cnc5c(N)ncnc54)[C@H](O)[C@@H]3O)[C@@H](O)[C@H]2O)c1 [NAD^+]
on-line H2 consumption and NADH evolution: consumption of H2 (A) and the evolution of NADH (C)
